Source: ChEMBL document CHEMBL3853329, “1,2,4-Triazolyl 5-Azaspiro[2.4]heptanes: Lead Identification and Early Lead Optimization of a New Series of Potent and Selective Dopamine D3 Receptor Antagonists” (J Med Chem, 2016)

How the values were obtained:
in vitro [1] = conditions: rat, liver microsomes
in vitro [2] = conditions: human, liver microsomes
in vivo [3] = conditions: rat
in vivo [4] = conditions: rat, whole blood, iv, 1 mg/kg
in vivo [5] = conditions: rat, iv, 1 mg/kg
in vivo [6] = conditions: rat, po, 5 mg/kg
in vivo [7] = conditions: rat, po, 5 mg/kg; remark: listed apart in the source
[8] = human, caco-2
in vivo [9] = conditions: rat, brain

Which microsomal CLint at 0.5 h, 0.5 µM (in vitro [1]) does the source give for Cn1c(SCCCN2CC[C@]3(C[C@@H]3c3ccc(C(F)(F)F)cc3)C2)nnc1-c1ccc(CC(N)=O)cc1 here?
The microsomal CLint at 0.5 h, 0.5 µM was 22 µL/min/mg.

What about the microsomal CLint at 0.5 h, 0.5 µM (in vitro [2]) of the same molecule?
Its microsomal CLint at 0.5 h, 0.5 µM is 58 µL/min/mg.

What does the source list for Cc1ncoc1-c1nnc(SCCCN2CC[C@@]3(C[C@H]3c3ccc(F)cc3C(F)(F)F)C2)n1C (single isomer, unassigned; enantiomer 2)?
microsomal CLint at 0.5 h, 0.5 µM (in vitro [1]): 151 µL/min/mg; microsomal CLint at 0.5 h, 0.5 µM (in vitro [2]): 320 µL/min/mg

Which results are given for Cc1ncoc1-c1nnc(SCCCN2CC[C@]3(C[C@H]3c3ccc(C(F)(F)F)cc3)C2)n1C?
microsomal CLint at 0.5 h, 0.5 µM (in vitro [1]): 161 µL/min/mg; microsomal CLint at 0.5 h, 0.5 µM (in vitro [2]): 22 µL/min/mg

With Cn1c(SCCCN2CC[C@]3(C[C@@H]3c3ccc(C(F)(F)F)cc3)C2)nnc1-c1ccc(C(N)=O)nc1 as the molecule, how does the half-life (in vivo [3]) read?
Its half-life is 132 min.

And the microsomal CLint at 0.5 h, 0.5 µM (in vitro [1])?
Its microsomal CLint at 0.5 h, 0.5 µM is 29 µL/min/mg.

And the clearance (in vivo [4])?
The clearance was 19.4 mL/min/kg.

What about the Vd (in vivo [5]) of the same molecule?
Its Vd is 3.2 L/kg.

And the microsomal CLint at 0.5 h, 0.5 µM (in vitro [2])?
Its microsomal CLint at 0.5 h, 0.5 µM is 106 µL/min/mg.

And the Fa (in vivo [6])?
The Fa was 40%.

And the bioavailability (in vivo [7])?
The bioavailability was 26%.

For Cn1c(SCCCN2CC[C@]3(C[C@@H]3c3ccc(C(F)(F)F)cc3)C2)nnc1C1CCOCC1, which half-life (in vivo [3]) is on record?
The half-life was 36 min.

What about the permeability [8] of the same molecule?
The permeability was “Permeable”.

And the microsomal CLint at 0.5 h, 0.5 µM (in vitro [1])?
Its microsomal CLint at 0.5 h, 0.5 µM is 59 µL/min/mg.

And the clearance (in vivo [4])?
The clearance was 87.3 mL/min/kg.

And the Kp (in vivo [9])?
The Kp was 0.3.

And the Vd (in vivo [5])?
Its Vd is 3.7 L/kg.

What about the microsomal CLint at 0.5 h, 0.5 µM (in vitro [2]) of the same molecule?
The microsomal CLint at 0.5 h, 0.5 µM was 34 µL/min/mg.

What about the Fa (in vivo [6]) of the same molecule?
The Fa was 57%.

What about the bioavailability (in vivo [7]) of the same molecule?
Its bioavailability is 11%.

Which microsomal CLint at 0.5 h, 0.5 µM (in vitro [1]) does the source give for Cc1ncoc1-c1nnc(SCCCN2CC[C@]3(C[C@H]3c3ccc(F)cc3C(F)(F)F)C2)n1C (single isomer, unassigned; enantiomer 1) here?
The microsomal CLint at 0.5 h, 0.5 µM was 51 µL/min/mg.

What about the microsomal CLint at 0.5 h, 0.5 µM (in vitro [2]) of the same molecule?
Its microsomal CLint at 0.5 h, 0.5 µM is 65 µL/min/mg.

With Cc1ncoc1-c1nnc(SCCCN2CC[C@@]3(C[C@H]3c3ccc(F)cc3F)C2)n1C as the molecule, how does the microsomal CLint at 0.5 h, 0.5 µM (in vitro [1]) read?
Its microsomal CLint at 0.5 h, 0.5 µM is 161 µL/min/mg.

And the microsomal CLint at 0.5 h, 0.5 µM (in vitro [2])?
Its microsomal CLint at 0.5 h, 0.5 µM is 53 µL/min/mg.

With Cc1ncccc1-c1nnc(SCCCN2CC[C@]3(C[C@@H]3c3ccc(C(F)(F)F)cc3)C2)n1C as the molecule, how does the microsomal CLint at 0.5 h, 0.5 µM (in vitro [1]) read?
Its microsomal CLint at 0.5 h, 0.5 µM is 103 µL/min/mg.

And the microsomal CLint at 0.5 h, 0.5 µM (in vitro [2])?
The microsomal CLint at 0.5 h, 0.5 µM was 80 µL/min/mg.

Which microsomal CLint at 0.5 h, 0.5 µM (in vitro [1]) does the source give for Cc1ccc(-c2nnc(SCCCN3CC[C@]4(C[C@@H]4c4ccc(C(F)(F)F)cc4)C3)n2C)c(C)n1 here?
The microsomal CLint at 0.5 h, 0.5 µM was 98 µL/min/mg.

What about the microsomal CLint at 0.5 h, 0.5 µM (in vitro [2]) of the same molecule?
Its microsomal CLint at 0.5 h, 0.5 µM is 299 µL/min/mg.

For Cn1c(SCCCN2CC[C@]3(C[C@@H]3c3ccc(C(F)(F)F)cc3)C2)nnc1C1=CCC(=O)N=C1 (stereo in doubt), which half-life (in vivo [3]) is on record?
The half-life was 204 min.

And the permeability [8]?
Its permeability is “Impermeable”.

What about the microsomal CLint at 0.5 h, 0.5 µM (in vitro [1]) of the same molecule?
The microsomal CLint at 0.5 h, 0.5 µM was 14 µL/min/mg.

And the clearance (in vivo [4])?
The clearance was 48 mL/min/kg.

And the Vd (in vivo [5])?
The Vd was 9.1 L/kg.

And the microsomal CLint at 0.5 h, 0.5 µM (in vitro [2])?
Its microsomal CLint at 0.5 h, 0.5 µM is 28 µL/min/mg.

What about the Fa (in vivo [6]) of the same molecule?
Its Fa is 1%.

And the bioavailability (in vivo [7])?
The bioavailability was 2%.

With Cn1c(SCCCN2CC[C@]3(C[C@@H]3c3ccc(C(F)(F)F)cc3F)C2)nnc1-c1cccnc1 as the molecule, how does the microsomal CLint at 0.5 h, 0.5 µM (in vitro [1]) read?
Its microsomal CLint at 0.5 h, 0.5 µM is 278 µL/min/mg.

And the microsomal CLint at 0.5 h, 0.5 µM (in vitro [2])?
Its microsomal CLint at 0.5 h, 0.5 µM is 485 µL/min/mg.

For Cc1nc(C(N)=O)ccc1-c1nnc(SCCCN2CC[C@]3(C[C@@H]3c3ccc(C(F)(F)F)cc3)C2)n1C, which half-life (in vivo [3]) is on record?
The half-life was 258 min.

What about the microsomal CLint at 0.5 h, 0.5 µM (in vitro [1]) of the same molecule?
Its microsomal CLint at 0.5 h, 0.5 µM is 38 µL/min/mg.

And the clearance (in vivo [4])?
The clearance was 21.1 mL/min/kg.

What about the Kp (in vivo [9]) of the same molecule?
Its Kp is 1.5.

What about the Vd (in vivo [5]) of the same molecule?
The Vd was 5.5 L/kg.

And the microsomal CLint at 0.5 h, 0.5 µM (in vitro [2])?
The microsomal CLint at 0.5 h, 0.5 µM was 299 µL/min/mg.

What about the Fa (in vivo [6]) of the same molecule?
Its Fa is 54%.

And the bioavailability (in vivo [7])?
Its bioavailability is 39%.

What does the source list for Cn1c(SCCCN2CC[C@]3(C[C@@H]3c3ccc(C(F)(F)F)cc3)C2)nnc1-c1ccc(-c2ncco2)cc1?
microsomal CLint at 0.5 h, 0.5 µM (in vitro [1]): 276 µL/min/mg; microsomal CLint at 0.5 h, 0.5 µM (in vitro [2]): 352 µL/min/mg

For Cn1c(SCCCN2CC[C@]3(C[C@@H]3c3ccc(C(F)(F)F)cc3)C2)nnc1-c1ccc(=O)n(C)c1, which half-life (in vivo [3]) is on record?
The half-life was 114 min.

And the permeability [8]?
Its permeability is “Permeable”.

And the microsomal CLint at 0.5 h, 0.5 µM (in vitro [1])?
The microsomal CLint at 0.5 h, 0.5 µM was 16 µL/min/mg.

What about the clearance (in vivo [4]) of the same molecule?
Its clearance is 30.2 mL/min/kg.

And the Kp (in vivo [9])?
The Kp was 0.4.

And the Vd (in vivo [5])?
Its Vd is 4 L/kg.

What about the microsomal CLint at 0.5 h, 0.5 µM (in vitro [2]) of the same molecule?
Its microsomal CLint at 0.5 h, 0.5 µM is 41 µL/min/mg.

What about the Fa (in vivo [6]) of the same molecule?
Its Fa is 17%.

What about the bioavailability (in vivo [7]) of the same molecule?
The bioavailability was 10%.

Which microsomal CLint at 0.5 h, 0.5 µM (in vitro [1]) does the source give for Cc1ncoc1-c1nnc(SCCCN2CC[C@@]3(C[C@H]3c3ccc(F)cc3)C2)n1C here?
Its microsomal CLint at 0.5 h, 0.5 µM is 73 µL/min/mg.

And the microsomal CLint at 0.5 h, 0.5 µM (in vitro [2])?
The microsomal CLint at 0.5 h, 0.5 µM was 37 µL/min/mg.

Which microsomal CLint at 0.5 h, 0.5 µM (in vitro [1]) does the source give for Cn1c(SCCCN2CC[C@]3(C[C@@H]3c3ccc(C(F)(F)F)cc3)C2)nnc1C1CC2CCC(C1)O2 (single isomer, unassigned; enantiomer 1) here?
Its microsomal CLint at 0.5 h, 0.5 µM is 21.3 µL/min/mg.

What about the clearance (in vivo [4]) of the same molecule?
Its clearance is 80 mL/min/kg.

And the Vd (in vivo [5])?
Its Vd is 2.6 L/kg.

What about the microsomal CLint at 0.5 h, 0.5 µM (in vitro [2]) of the same molecule?
The microsomal CLint at 0.5 h, 0.5 µM was 50 µL/min/mg.

With Cn1c(SCCCN2CC[C@]3(C[C@@H]3c3ccc(C(F)(F)F)cc3)C2)nnc1-c1cccc(C(N)=O)c1 as the molecule, how does the microsomal CLint at 0.5 h, 0.5 µM (in vitro [1]) read?
The microsomal CLint at 0.5 h, 0.5 µM was 92 µL/min/mg.

And the microsomal CLint at 0.5 h, 0.5 µM (in vitro [2])?
Its microsomal CLint at 0.5 h, 0.5 µM is 187 µL/min/mg.

For Cc1ncoc1-c1nnc(SCCCN2CC[C@]3(C[C@@H]3c3ccc(C(F)(F)F)cc3)C2)n1C, which microsomal CLint at 0.5 h, 0.5 µM (in vitro [1]) is on record?
Its microsomal CLint at 0.5 h, 0.5 µM is 83 µL/min/mg.

What about the microsomal CLint at 0.5 h, 0.5 µM (in vitro [2]) of the same molecule?
Its microsomal CLint at 0.5 h, 0.5 µM is 86 µL/min/mg.

For Cn1c(SCCCN2CC[C@]3(C[C@@H]3c3ccc(C(F)(F)F)cc3)C2)nnc1-c1ccc(C(N)=O)cc1, which microsomal CLint at 0.5 h, 0.5 µM (in vitro [1]) is on record?
Its microsomal CLint at 0.5 h, 0.5 µM is 41 µL/min/mg.

And the microsomal CLint at 0.5 h, 0.5 µM (in vitro [2])?
The microsomal CLint at 0.5 h, 0.5 µM was 155 µL/min/mg.

What does the source list for Cn1c(SCCCN2CC[C@]3(C[C@@H]3c3ccc(C(F)(F)F)cc3)C2)nnc1-c1cccc(-c2ncco2)c1?
microsomal CLint at 0.5 h, 0.5 µM (in vitro [1]): 100 µL/min/mg; microsomal CLint at 0.5 h, 0.5 µM (in vitro [2]): 447 µL/min/mg

For Cn1c(SCCCN2CC[C@]3(C[C@@H]3c3ccc(C(F)(F)F)cc3)C2)nnc1C1CCNC(=O)C1 (single isomer, unassigned), which microsomal CLint at 0.5 h, 0.5 µM (in vitro [1]) is on record?
Its microsomal CLint at 0.5 h, 0.5 µM is < 11 µL/min/mg.

And the microsomal CLint at 0.5 h, 0.5 µM (in vitro [2])?
Its microsomal CLint at 0.5 h, 0.5 µM is 25 µL/min/mg.

With Cn1c(SCCCN2CC[C@]3(C[C@@H]3c3ccc(C(F)(F)F)cc3)C2)nnc1C1CCCCC1 as the molecule, how does the microsomal CLint at 0.5 h, 0.5 µM (in vitro [1]) read?
The microsomal CLint at 0.5 h, 0.5 µM was 201 µL/min/mg.

What about the microsomal CLint at 0.5 h, 0.5 µM (in vitro [2]) of the same molecule?
The microsomal CLint at 0.5 h, 0.5 µM was 339 µL/min/mg.
